{
  "source": "patent US12226520B2",
  "about": "“Self-fueled particles for propulsion through flowing aqueous fluids” (The University of British Columbia, priority 2013, dated 2025)",
  "key": {"[1]": {"tested_on": "platelet-poor blood plasma", "experiment": "Clot initiation in a 25 mm column of non-flowing platelet-poor blood plasma", "format": "biochemical", "description": "Thr-CaCO3 was mixed at a 1:1 mass ratio with TXA-NH3^+ to yield a propelling particle mixture. A non-propelling mixture consisted of a 1:1 ratio of Thr-CaCO3 with lyophilized TXA-NH2. The ability of the two mixtures to initiate clotting in platelet-poor blood plasma was measured and compared against addition of a similar amount of thrombin (approximately 1 pmol) in HEPES buffer and a control receiving no treatment.\nThe ability of particles to clot both at the site of application and below the site was assessed by injecting particles near the top of a column of plasma that was 25 mm tall. Initiation of clotting was measured both at the top and the bottom of the column by monitoring the formation of fibrin. The blood plasma was laced with green-fluorescent beads in order to monitor movement and formation of solid fibrin mesh and clot initiation. Clotting at the top was measured visually, and when the plasma became opaque or appeared gelled, clotting was confirmed by gentle manipulation with a micropipette.\nBoth propelling and non-propelling particles immediately clotted plasma at the top of the column, which was detected within 2 min. The same response occurred when a solution containing an equivalent amount of dissolved thrombin was added. However, there were much larger differences in the clot times at the bottom of the columns of plasma between these samples.\nClotting took about 30 min, as the clot needed to propagate down through the column by diffusion. Clotting at the bottom was faster using non-propelled particles, occurring in 3.7 min as compared to 10 min for the propelled particles. […] Most propelled particles reacted and produced gas at the top so only a fraction of the particles sank to the bottom yielding a slightly slower clot time compared to non-propelling particles. Although the propelled particles out-performed the thrombin solution in this assay, a particular advantage for the propelling particles would come from an ability to propel though flowing solutions."}, "flowing plasma": {"tested_on": "flowing plasma", "experiment": "Clotting and occlusion of plasma flowing through a glass capillary tube", "format": "biochemical", "description": "To show propelling thrombin particles clotting flowing plasma, particles were applied to the bottom of plasma flowing through a glass capillary tube (FIG. 3D,E). A microfluidic system was used to control the flow of plasma, and monitor the flow to determine when clotting occluded flow in the capillary tube. At flow velocities between 0.006 and 3.4 mm/s, the background occlusion times in the system were approximately 30 min. […] At high flows, the clot was easily pushed out and the flow of plasma resumed. […] The particles propelled upwards, against flow, and accumulated high within the tubing. Clotting was seen to initiate at regions with the highest concentration of particles."}},
  "data": [
    {"substance": "thrombin [thrombin solution]", "values": [
      {"measurement": "acceleration of clot initiation at the bottom compared to the control", "setting": "[1]; bottom of 25 mm column", "value": "no acceleration of clot initiation"},
      {"measurement": "clot time at the bottom of the column", "setting": "[1]; bottom of 25 mm column, non-flowing plasma", "value": "about 30 min"},
      {"measurement": "clot time at the top of the column", "setting": "[1]; site of application, non-flowing plasma", "value": "same response"},
      {"measurement": "flow velocity up to which occlusion occurred", "setting": "flowing plasma", "value": "up to 0.06 mm/s"},
      {"measurement": "occlusion versus controls at 0.6 mm/s", "setting": "flowing plasma; flow velocity 0.6 mm/s", "value": "no difference from controls"}
    ]}
  ]
}
